Test [1] has as its system PC-3 prostate cancer cells. Description: PC3 cell viability and proliferation assay (MTS). As to conditions: Homo sapiens, PC-3, 72 h, read-out: PC3 D3 GI50. The format is cell-based.
Test [2] concerns HCT116 colon cancer cells. Description: HCT116 cell viability and proliferation assay (MTS). The settings on record: Homo sapiens, HCT-116, 72 h, read-out: HCT116 D3 GI50. In kind it is cell-based.
Test [3] concerns the target T1, Uch-L3 (Homo sapiens, UniProt P15374).
T1 sequence (P15374 1-230): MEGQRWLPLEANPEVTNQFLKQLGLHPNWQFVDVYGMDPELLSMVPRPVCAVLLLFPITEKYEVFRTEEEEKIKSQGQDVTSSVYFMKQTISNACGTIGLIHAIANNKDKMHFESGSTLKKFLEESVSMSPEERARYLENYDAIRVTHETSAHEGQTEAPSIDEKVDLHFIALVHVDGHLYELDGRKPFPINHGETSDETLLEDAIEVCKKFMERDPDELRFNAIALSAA
Description: UCH-L3 activity assay. As to conditions: 400 nM Ub-AMC, 13 pM enzyme, 30 min pre-incubation at 25° C., 60 min at 37° C.; sigmoidal fit; AF: Autofluorescent; read-out: Uch-L3 (inhibition of cysteine protease activity). The format is biochemical. The method in brief: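 Compounds were pre-incubated with 13 pM Uch-L3 for 30 min at 25° C in pH 7.6 buffer with 0.05 mg/ml BSA. Reactions ran 60 min at 37° C with 400 nM Ub-AMC, were stopped with 100 mM acetic acid, and AMC fluorescence was read. Duplicates were expressed as % of no-compound control and fitted to a variable-slope sigmoid.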

Test [4] has as its target T2, Caspase 3 (Homo sapiens, UniProt P42574).
T2 sequence (P42574 29-175 limits assumed): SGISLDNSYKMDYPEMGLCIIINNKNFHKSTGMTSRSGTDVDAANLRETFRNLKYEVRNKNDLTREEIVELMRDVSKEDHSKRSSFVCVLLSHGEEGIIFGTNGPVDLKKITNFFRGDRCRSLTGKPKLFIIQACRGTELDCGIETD
T2 sequence (P42574 176-277 limits assumed): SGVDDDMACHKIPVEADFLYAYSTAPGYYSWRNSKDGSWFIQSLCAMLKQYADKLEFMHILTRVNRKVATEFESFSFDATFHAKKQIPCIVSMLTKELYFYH
Nature of the test: Caspase 3 activity assay. In kind it is biochemical. As to conditions: 500 nM Ac-DEVD-AMC, 3.2 nM enzyme, 30 min pre-incubation at 25° C., 60 min at 37° C.; sigmoidal fit; AF: Autofluorescent; read-out: Casp3 (inhibition of cysteine protease activity). Summed up: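 Compounds were pre-incubated with caspase 3 for 30 min at 25 °C, then Ac-DEVD-AMC (500 nM) was added and reactions ran 60 min at 37 °C under initial-velocity conditions. Acetic acid stopped the reaction before AMC fluorescence was read. Activity as % of no-compound control was fitted to a variable-slope sigmoid.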

The target in test [5] is T3, USP8 (Homo sapiens, UniProt P40818).
T3 sequence (P40818 1-1118): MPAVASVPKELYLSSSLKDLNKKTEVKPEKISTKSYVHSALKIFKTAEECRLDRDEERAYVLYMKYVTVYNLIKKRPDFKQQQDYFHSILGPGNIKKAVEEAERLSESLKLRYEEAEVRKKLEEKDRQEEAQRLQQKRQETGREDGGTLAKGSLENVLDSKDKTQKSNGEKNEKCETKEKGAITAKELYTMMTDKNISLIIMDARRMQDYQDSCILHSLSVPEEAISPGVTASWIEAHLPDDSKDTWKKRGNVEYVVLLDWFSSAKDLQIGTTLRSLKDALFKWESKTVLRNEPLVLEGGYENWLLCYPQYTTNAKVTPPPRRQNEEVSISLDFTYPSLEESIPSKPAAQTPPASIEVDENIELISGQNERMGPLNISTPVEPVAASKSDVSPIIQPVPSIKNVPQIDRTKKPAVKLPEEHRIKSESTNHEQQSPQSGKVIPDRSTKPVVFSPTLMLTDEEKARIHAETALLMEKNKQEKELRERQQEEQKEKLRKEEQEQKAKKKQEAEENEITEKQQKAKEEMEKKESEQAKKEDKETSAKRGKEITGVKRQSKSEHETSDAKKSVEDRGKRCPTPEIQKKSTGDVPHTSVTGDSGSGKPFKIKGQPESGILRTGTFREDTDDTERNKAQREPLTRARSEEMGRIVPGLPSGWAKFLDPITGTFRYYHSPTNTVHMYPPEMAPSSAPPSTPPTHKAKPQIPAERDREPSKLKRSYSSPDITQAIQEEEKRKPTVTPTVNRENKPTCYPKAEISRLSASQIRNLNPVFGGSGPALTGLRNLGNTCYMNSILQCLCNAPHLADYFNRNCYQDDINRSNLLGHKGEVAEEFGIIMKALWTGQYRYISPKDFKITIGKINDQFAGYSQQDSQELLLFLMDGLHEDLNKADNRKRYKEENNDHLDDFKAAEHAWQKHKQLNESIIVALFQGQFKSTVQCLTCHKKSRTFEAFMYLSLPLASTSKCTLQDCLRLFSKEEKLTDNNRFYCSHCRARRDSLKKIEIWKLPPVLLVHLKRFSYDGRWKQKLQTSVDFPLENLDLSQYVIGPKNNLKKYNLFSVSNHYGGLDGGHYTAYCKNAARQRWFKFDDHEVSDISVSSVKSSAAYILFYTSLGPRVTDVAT
Nature of the test: USP8 activity assay. In kind it is biochemical. The settings on record: 400 nM Ub-AMC, pH8.8, 30 min pre-incubation at 25° C., 60 min at 37° C.; sigmoidal fit; AF: Autofluorescent; read-out: USP 8 (inhibition of cysteine protease activity).

7 compounds from patent publication US8648076B2, “Cysteine protease inhibitors and their therapeutic applications” (Hybrigenics SA, priority 2005, dated 2014) can be followed below.

The term GI50 denotes the concentration giving 50% growth inhibition.

On to `CCc1ccc2c(c1)-c1nc(C#N)c(C#N)nc1C2=O` [Example 32, 6-ethyl-9-oxo-9H-indeno[1,2-b]pyrazine-2,3-dicarbonitrile], for which the values for the GI50 in test [1] and in test [2] were 1430 nM and 385 nM, respectively. Besides, the IC50 was 258 nM in test [3], 3600 nM in test [4] and 111 nM in test [5].

Consider `C=CCON=C1c2ccccc2-c2nc(C(N)=O)c(C#N)nc21` [Example 34a, 9-Allyloxyimino-2-cyano-9H-indeno[1,2-b]pyrazine-3-carboxylic acid amide], for which the results for the GI50 in test [1] and in test [2] were 511 nM and 496 nM, respectively. Further, the results for the IC50 in test [3], in test [4] and in test [5] were 32 nM, 245 nM and 58 nM, respectively.

With `CCON=C1c2ccccc2-c2nc(C(N)=O)c(C#N)nc21` [Example 34b, 2-Cyano-9-ethoxyimino-9H-indeno[1,2-b]pyrazine-3-carboxylic acid amide], the GI50 is 479 nM in test [1] and 469 nM in test [2]. In addition, the IC50 in test [3] amounted to 99 nM; in test [4], 624 nM; in test [5] it was 63 nM.

As to `COCCON=C1c2ccccc2-c2nc(C(N)=O)c(C#N)nc21` [Example 34c, 2-Cyano-9-(2-methoxy-ethoxyimino)-9H-indeno[1,2-b]pyrazine-3-carboxylic acid amide], the GI50 in test [1] worked out at 362 nM; in test [2], 378 nM. Besides, the IC50 in test [3] was 109 nM; in test [4] it was 1220 nM; in test [5], 71 nM.

Turning to `CON=C1c2ccccc2-c2nc(C(N)=O)c(C#N)nc21` [Example 34d, 2-Cyano-9-methoxyimino-9H-indeno[1,2-b]pyrazine-3-carboxylic acid amide], the concentration for 50% growth inhibition (GI50) stood at 1200 nM in test [1] and 916 nM in test [2]. The IC50 in test [3] came out at 37 nM; in test [4], 131 nM; in test [5] it was 29 nM.

Consider `N#Cc1nc2c(nc1O)-c1ccc(Cl)cc1C2=O` [Example 42, 7-chloro-3-hydroxy-9-oxo-9H-indeno[1,2-b]pyrazine-2-carbonitrile], for which the GI50 in test [1] and in test [2] was more than 10000 nM in each case. For the same compound, the IC50 in test [3], in test [4] and in test [5] was more than 100000 nM throughout.

For the compound `N#Cc1nc2c(nc1C#N)-c1ccc(Cl)cc1C2=NNC(N)=O` [Example 43, 9-[(aminocarbonyl)hydrazono]-7-chloro-9H-indeno[1,2-b]pyrazine-2,3-dicarbonitrile], the GI50 in test [1] is 655 nM; in test [2], 512 nM. Further, the IC50 in test [3] worked out at 13500 nM; in test [4], 64900 nM; in test [5] it was 814 nM.
